Source: US10222368B2 (priority 2012, dated 2019)

Assays:
TLR4/FLNA complexes = TLR4/FLNA complexes (Homo sapiens, UniProt P21333); assay: Protein A and Protein G capture plate assay in lymphocytes; details: 1 nM
α7nAChR/FLNA complexes = biological target: T1, α7nAChR/FLNA complexes (Homo sapiens, UniProt P21333); assay: as above; format: cell-based; details: 1 nM
T1 construct: To determine the levels of FLNA-α7nAChR, FLNA-TLR4 and α7nAChR-Aβ42 complexes in the lymphocytes; endogenous in cells; host or cells: lymphocytes from venous blood of AD patients and control subjects (ex vivo)
Description: Each sample was assessed in duplicate.

[1] = biological target: FLNA association with TLR4 (Mus musculus, UniProt Q8BTM8); assay: ICV Aβ42 infusion mouse model, synaptosome co-immunoprecipitation; details: 10 mg/kg C0105 i.p. twice daily, 2 weeks; prefrontal cortex and hippocampus
α7nAChR-FLNA complex [2] = biological target: T2, α7nAChR-FLNA complex (Homo sapiens, UniProt P21333); assay: α7nAChR/FLNA ELISA of lymphocyte lysates (Example 7); format: cell-based; details: for Optical Density α7nAChR/FLNA (OD450), average: AD lymphocytes + 10 μM C0105, four replicate studies, background subtracted
T2 construct: To determine the levels of FLNA-α7nAChR, FLNA-TLR4 and α7nAChR-Aβ42 complexes in the lymphocytes; endogenous in cells; host or cells: lymphocytes from venous blood of AD patients and control subjects (ex vivo)
Description: The capture antibody was the mouse anti-human Filamin A SC-17749 (Santa Cruz Biotechnology), and rabbit anti-human α7nAChR SC-5544 (Santa Cruz Biotechnology Santa Cruz Biotechnology) as the detection antibody. The assays were carried out in Santa Cruz Flat Bottom Plates.
PBS buffer used was 1×PBS (Mg-, and Ca-free) from Thermo Scientific, whereas PBST was 1×PBS+0.05% Tween®-20.
Coating buffer was prepared by dissolving 1.59 g of Na2CO3 in 0.9 L distilled H2O, to which was added 0.1 g NaN3 and 3.93 g of NaHCO3. The pH value was adjusted to 9.6, and the volume adjusted to 1 L with additional distilled H2O. Santa Cruz BSA blocking buffer supplemented with 1% BSA (sc-293965).
The HRP Detection Reagent (TMB) was prepared using 1-Step Ultra TMB-ELISA, (Cat#34028; Thermo Scientific). Standard protocol using 100 μl of the TMB substrate solution per each microplate well, followed by 10-15 minute incubation (or until color develops) and stopping reaction by adding 100 μl of 2 M sulfuric acid to each well. Absorbance (OD450) measured at 450 nm. Santa Cruz BSA blocking buffer was used supplemented with 1% BSA (SC-293965), and assays were carried out using a Molecular Devices Spectramax™ PLUS ELISA plate reader at 450 nm.
AD patient samples: 20 microtubes (labeled #1-#20; 100 ul volume each) with AD patients lymphocytes were received frozen on dry ice. Samples were kept at −20° C. freezer for 1 hour, following thawing at 4° C. […] Ice-cold PBS (300 μl) was added and entire contents were centrifuged to remove insoluble debris.
Normal patient sample was prepared by following procedure: 8 mL of venous blood was collected into cat#362761 BD Vacutainer™ CPT tube (cell preparation tube with sodium citrate) and following manufacturer's recommended protocol for white blood cells isolation (including two centrifugation/PBS wash steps). […] Ice-cold PBS (300 μl) was added and entire content was centrifuged to remove insoluble debris, resulting in “NP sample”.
Compound C0105 treatment was performed using AD patient white blood cells resuspended in 1×PBS and treated with: a) 10 μM Compound C0105 (final concentration), and b) control (PBS only) for 60 minutes at 37° C. (total volume is 400 μl of each sample).
Anti-Filamin A antibody (SC-17749) was diluted in Coating Buffer (at dilution ratio of 1:30) and 100 μl sample loaded per well and incubated 2.5 hours at room temperature (RT). The plate was covered with adhesive cover to prevent evaporation. Followed by washing of the microtiter plate with 150 μl of Blocking Buffer (supplemented with 1% BSA) and added 100 μl of Blocking Buffer to the wells for 30 minutes at RT.
AD samples (AD patients lymphocytes, as described above) were used to generate serial dilution series samples (dilution performed in PBS) and 100 μl sample loaded per well and incubated 1 hour at RT (total protein concentration is indicated as established by Bradford assay, as described above). The plate was covered with adhesive cover to prevent evaporation, followed by washing each well two times with 160 μl PBST Buffer.
After washing of the microtiter plate with washing buffer, 100 μl of α7nAChR primary antibody (SC-5544) were added per well (1:50 dilution ratio) in 1×PBS and incubated for 1 hour at RT.

α7nAChR-FLNA complex [3] = biological target: T2, α7nAChR-FLNA complex; assay: Lymphocyte co-immunoprecipitation / Western blot; format: cell-based
Description: To prepare lymphocytes, 7 ml of venous blood was collected into an EDTA-containing collecting tube or S-monovette (Sarstedt, Newton, N.C.). […] The lymphocytes were washed twice by mixing with 6 ml oxygenated Kreb's-Ringer followed by centrifugation at 250×g for 10 minutes and re-suspension. […] To store lymphocytes, the lymphocyte pellet was resuspended in 250 μl ice-cold oxygenated Kreb's-Ringer containing 10% glycerol, and stored at −20° C. for 1 hour before storage at −80° C.
In the case that frozen lymphocyte samples were used, a lymphocyte suspension was gradually thawed by storing at −20° C. for 1 hour after removal from −80° C. and then at thawed at 4° C.
The incubation was terminated by adding 1 ml ice-cold Ca^2+-free Kreb's-Ringer containing 0.5 mM EGTA/0.1 mM EDTA, protease and phosphatase inhibitors followed by centrifugation. The resultant lymphocyte pellet was homogenized in 0.25 ml ice-cold immunoprecipitation buffer. […]
The membranes were then washed 3 times (1 minutes each) with 0.1% Tween-20 containing PBS and then once with distilled water for 1 minutes. The immunoreactivity was detected by a chemiluminutesescent method (Supersignal chemiluminutesescent reagents−Pierce/Thermo), and visualized by immediate exposure to X-ray film for 10-30 seconds (depending on the intensity of the signal). Specific protein bands were quantified by densitometric scanning (GS-800 calibrated densitometer, Bio-Rad Laboratories).
The membranes were then washed 3 times (1 minutes each) with 0.1% Tween®-20-containing PBS and then once with distilled water for 1 minute. The immunoreactivity was detected by a chemiluminutesescent method (Supersignal chemiluminutesescent reagents—Pierce/Thermo), and visualized by immediate exposure to X-ray film for 10-30 seconds (depending on the intensity of the signal). Specific protein bands were quantified by densitometric scanning (GS-800 calibrated densitometer, Bio-Rad Laboratories). The data are expressed as the ratio of α7nAChR/FLNA, TLR4/FLNA or α7nAChR/β-Actin optical intensities (in arbitrary units).

α7nAChR-FLNA association = biological target: T3, α7nAChR-FLNA association (Rattus norvegicus, UniProt A0A8I5ZV49); assay: Rat frontal cortical synaptosomes treated with Aβ42, anti-FLNA immunoprecipitation / Western blot; format: cell-based; details: 1 or 10 nM compound, simultaneously or 10 min prior to 0.1 μM Aβ42
T3 construct: from tissue; host or cells: rat frontal cortical synaptosomes
Description: The α7nAChR-FLNA complexes in the solubilized synaptosomes were immunoprecipitated with immobilized anti-FLNA and the α7nAChR and FLNA levels in the anti-FLNA immunoprecipitates determined by Western blotting (FIG. 14A) and quantified by densitometry for illustrative compounds (FIG. 14B). n=3. […] The letter designation “M” that accompanies many of the “C-series” compounds is omitted from FIG. 14, the remaining figures and most discussions of the figures and compounds hereinafter for ease in expression. Structural formulas of the compounds used in this and the other figures are provided hereinafter.
The complexes in the solubilized synaptosomes, and α7nAChR, TLR4 and FLNA levels in the anti-FLNA immunoprecipitates were determined by Western blotting (FIG. 15A) in which numerals outside of and to the left of the blots are as discussed before. Amounts present in the blots were quantified by densitometry (FIG. 15B). […] Structural formulas of the compounds used in this and the other figures are provided hereinafter.

T2 sequence (P21333 2-2647 limits assumed, one chain of several): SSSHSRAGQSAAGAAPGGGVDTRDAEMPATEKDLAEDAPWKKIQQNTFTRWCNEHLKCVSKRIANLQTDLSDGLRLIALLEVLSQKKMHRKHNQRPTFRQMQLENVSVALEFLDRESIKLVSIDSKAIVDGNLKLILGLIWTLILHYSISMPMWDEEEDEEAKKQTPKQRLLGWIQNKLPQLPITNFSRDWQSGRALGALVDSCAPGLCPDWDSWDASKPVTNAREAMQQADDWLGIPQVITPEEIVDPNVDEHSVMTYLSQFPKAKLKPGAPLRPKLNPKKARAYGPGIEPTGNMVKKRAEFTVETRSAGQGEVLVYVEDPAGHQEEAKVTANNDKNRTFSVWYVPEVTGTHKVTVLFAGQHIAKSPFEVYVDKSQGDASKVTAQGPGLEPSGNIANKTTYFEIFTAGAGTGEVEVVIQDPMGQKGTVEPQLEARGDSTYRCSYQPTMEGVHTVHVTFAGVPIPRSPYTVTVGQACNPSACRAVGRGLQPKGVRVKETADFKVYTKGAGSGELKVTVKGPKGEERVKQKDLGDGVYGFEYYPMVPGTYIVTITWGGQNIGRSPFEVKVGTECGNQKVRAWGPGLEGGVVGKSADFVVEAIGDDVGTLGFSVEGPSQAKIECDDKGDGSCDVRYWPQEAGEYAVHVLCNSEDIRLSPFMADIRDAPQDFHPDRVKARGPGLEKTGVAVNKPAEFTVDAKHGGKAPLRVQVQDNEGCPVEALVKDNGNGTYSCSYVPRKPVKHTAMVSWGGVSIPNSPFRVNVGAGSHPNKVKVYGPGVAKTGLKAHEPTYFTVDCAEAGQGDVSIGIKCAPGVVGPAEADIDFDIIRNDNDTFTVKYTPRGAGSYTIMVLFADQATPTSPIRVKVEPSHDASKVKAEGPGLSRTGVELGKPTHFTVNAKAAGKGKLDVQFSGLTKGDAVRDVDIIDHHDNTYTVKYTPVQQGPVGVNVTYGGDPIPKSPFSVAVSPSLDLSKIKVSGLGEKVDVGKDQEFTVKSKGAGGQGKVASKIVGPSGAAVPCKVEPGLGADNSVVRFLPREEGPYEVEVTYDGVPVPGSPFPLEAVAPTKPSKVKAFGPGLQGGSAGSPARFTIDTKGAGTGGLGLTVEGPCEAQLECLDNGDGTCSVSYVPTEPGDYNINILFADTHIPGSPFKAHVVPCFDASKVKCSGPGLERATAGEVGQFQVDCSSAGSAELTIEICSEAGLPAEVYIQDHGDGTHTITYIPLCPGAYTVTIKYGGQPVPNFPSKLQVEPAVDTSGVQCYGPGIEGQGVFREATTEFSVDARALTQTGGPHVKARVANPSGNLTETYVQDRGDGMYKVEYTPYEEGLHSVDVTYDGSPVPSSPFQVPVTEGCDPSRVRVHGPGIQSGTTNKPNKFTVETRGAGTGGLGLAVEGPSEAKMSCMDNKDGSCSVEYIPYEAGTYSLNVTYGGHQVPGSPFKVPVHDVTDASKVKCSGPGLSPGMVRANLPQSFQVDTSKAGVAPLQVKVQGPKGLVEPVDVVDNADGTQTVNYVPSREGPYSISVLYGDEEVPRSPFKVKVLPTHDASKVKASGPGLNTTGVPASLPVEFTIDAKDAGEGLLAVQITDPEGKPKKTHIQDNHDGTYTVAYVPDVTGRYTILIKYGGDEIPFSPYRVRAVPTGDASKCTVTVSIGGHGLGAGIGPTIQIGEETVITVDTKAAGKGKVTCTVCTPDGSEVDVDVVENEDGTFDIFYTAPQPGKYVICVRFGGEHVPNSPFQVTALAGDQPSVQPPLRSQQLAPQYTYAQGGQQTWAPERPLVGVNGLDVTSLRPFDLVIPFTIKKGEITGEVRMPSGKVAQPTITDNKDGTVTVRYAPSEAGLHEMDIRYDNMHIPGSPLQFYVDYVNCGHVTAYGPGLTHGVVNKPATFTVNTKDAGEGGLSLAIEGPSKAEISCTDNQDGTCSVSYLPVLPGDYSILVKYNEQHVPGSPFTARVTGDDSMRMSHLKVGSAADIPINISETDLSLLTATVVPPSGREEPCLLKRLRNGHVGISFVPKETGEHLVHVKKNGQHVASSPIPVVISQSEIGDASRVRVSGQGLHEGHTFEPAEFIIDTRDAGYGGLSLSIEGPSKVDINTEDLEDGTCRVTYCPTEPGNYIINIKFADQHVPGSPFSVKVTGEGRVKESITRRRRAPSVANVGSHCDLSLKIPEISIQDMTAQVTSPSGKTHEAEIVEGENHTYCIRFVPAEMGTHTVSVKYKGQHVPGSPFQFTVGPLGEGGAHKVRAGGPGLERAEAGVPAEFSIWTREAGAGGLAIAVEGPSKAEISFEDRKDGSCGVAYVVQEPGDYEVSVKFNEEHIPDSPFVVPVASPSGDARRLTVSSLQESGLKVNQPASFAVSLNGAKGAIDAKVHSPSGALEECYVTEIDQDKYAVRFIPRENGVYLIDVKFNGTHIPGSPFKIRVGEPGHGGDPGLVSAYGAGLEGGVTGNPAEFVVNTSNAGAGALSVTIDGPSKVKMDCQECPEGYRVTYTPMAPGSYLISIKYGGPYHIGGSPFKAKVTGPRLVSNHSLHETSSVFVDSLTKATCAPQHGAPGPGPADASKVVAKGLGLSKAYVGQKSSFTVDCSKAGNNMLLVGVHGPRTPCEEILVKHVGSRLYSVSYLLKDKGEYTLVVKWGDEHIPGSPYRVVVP
T1 sequence (P21333 2-2647 limits assumed, one chain of several): as above
Sequence of TLR4/FLNA complexes (P21333 2-2647 limits assumed, one chain of several): as above

SMILES: CN1CCC2(CC1)NCC(=O)N2Cc1ccccc1 [Compound C0105]
- Decrease in amount of TLR4 FLNA complexes (TLR4/FLNA complexes; AD lymphocytes): approximately 50%
- Response of TLR4/FLNA complexes (in words) (TLR4/FLNA complexes; YCI lymphocytes): essentially non-responsive
- Decrease in amount of α7nAChR FLNA complexes (α7nAChR/FLNA complexes; AD lymphocytes): approximately 50%
- Response of α7nAChR/FLNA complexes (in words) (α7nAChR/FLNA complexes; YCI lymphocytes): essentially non-responsive
- Effect on Aβ42-induced FLNA association with TLR4 (in words) [1]: reduced Aβ42-induced increases in FLNA associations
- Effect on amount of α7nAChR associated with FLNA (in words) (α7nAChR-FLNA complex [2]; 10 μM, AD lymphocytes): significant reduction
- Effect on amount of α7nAChR/FLNA complex (in words) (α7nAChR-FLNA complex [2]; 10 μM, YCI lymphocyte preparation): substantially no difference
- Optical Density α7nAChR/FLNA (OD450), average (α7nAChR-FLNA complex [2]; 1.25 (mg) lysate per well): 0.1572
- Optical Density α7nAChR/FLNA (OD450), average (α7nAChR-FLNA complex [2]; 2.5 (mg) lysate per well): 0.2261
- Optical Density α7nAChR/FLNA (OD450), average (α7nAChR-FLNA complex [2]; 5 (mg) lysate per well): 0.291
- Optical Density α7nAChR/FLNA (OD450), average (α7nAChR-FLNA complex [2]; 10 (mg) lysate per well): 0.3349
- Optical Density α7nAChR/FLNA (OD450), average (α7nAChR-FLNA complex [2]; 20 (mg) lysate per well): 0.4504
- inhibition at 0.001 µM (α7nAChR-FLNA complex [3]; 1 nM C0105, 30 min, lymphocytes of 20 AD subjects, read-out: Reduction of α7nAChR/FLNA complex level (% inhibition)): ~50%
- Effect on amount of α7nAChR-FLNA complexes (in words), pilot study (α7nAChR-FLNA complex [3]; 1 nM C0105, Aβ42-treated control and untreated AD lymphocytes): decreases the amount of α7nAChR-FLNA complexes
- Effect on α7nAChR/FLNA complex level (in words) (α7nAChR-FLNA complex [3]; 1 nM C0105, lymphocytes of 10 YCI controls): no discernible effect
- Effect on Aβ42-induced α7nAChR-FLNA association (in words) (α7nAChR-FLNA association): reduce α7nAChR-FLNA association
